Assay results published in patent US9714247B2, “Multiple kinase pathway inhibitors” (Mannkind Corporation, priority 2012, dated 2017).
Like-named read-outs stand apart in the source and are kept apart here.

How the values were obtained:
Ramos [1] = test: CellTiter-Glo proliferation/viability assay; format: cell-based, human
Lyn [2] = target: T1, Lyn (Homo sapiens (Human), UniProt P07948); conditions: read-out: Lyn IC50
[3] = tested on: phosphorylation of SFKs in Ramos cells; test: SFK phosphorylation (Tyr 416) by flow cytometry; format: cell-based, human; conditions: Homo sapiens, 0.3 uM, flow cytometry, SFK phosphorylated at Tyr 416, read-out: pSRC % inhibition
Experimental: Ramos cell lysates from stimulated and unstimulated cells were analyzed for the levels of phosphorylated SRC family members. As described in Example 82 (above), cells were pretreated for 2 hours with an amino naphthyridinones and then stimulated with anti-IgM antibody and H2O2, protein lysates were prepared, quantified and used for Western blotting. A commercially available antibody that detects Src phosphorylated at Tyr 416 (Cell Signalling) and may cross-react with other Src family members such as Lyn, Fyn, Lck, Yes and Hck when phosphorylated at equivalent sites was used for Western blot analysis. The molecular weights of SFK family members are quite similar (in the 55-60 kDa range) and different family members cannot be resolved by the conditions used for the Western blot. […] The procedure can be similarly adapted for flow cytometric analysis as with the PLC-γ2 assay in Example 82. Ramos cells were incubated with Compound 1 for 2 hrs in RPMI media with 5% FBS prior to stimulation stimulated with H2O2/anti-IgM/F(Ab) for 10 minutes. Cells were evaluated by FACS analysis using anti-pSRC antibody and FITC-conjugated goat anti-rabbit secondary antibody following overnight storage at 4° C. in BD perm/wash buffer.
Ramos cells were prepared for flow cytometry analysis as described in example 82, and stained with a commercially available antibody that detects SFK phosphorylated at Tyr 416, followed by Alexa Fluor 488 conjugated secondary antibody. […] Thus amino naphthyridinones are useful in the inhibition of the phosphorylation of SFKs.

Src [4] = target: T2, Src (Homo sapiens (Human), UniProt P12931); conditions: read-out: Src IC50
[5] = tested on: PLCγ2 phosphorylation in Ramos cells; test: PLCγ2 phosphorylation by flow cytometry; format: cell-based, human; conditions: Homo sapiens, 0.3 uM, flow cytometry, anti-phospho PLCγ2 (Tyr759), read-out: pPLCγ % inhibition
In short: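 Ramos cells starved 18 h in 1% FBS, pretreated with inhibitor 2 h, then stimulated with anti-IgM (10 ug/ml final) plus 3.3 mM H2O2 for 2 min, then cross-linking F(ab) (10 ug/ml) plus H2O2 for 8 min. Fixed, permeabilized cells stained with PE anti-phospho-PLCγ2 (Tyr1217 or Tyr759), dead cells gated out; ED50 from geometric mean fluorescence over four inhibitor concentrations.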

DoHH2 [6] = test: CellTiter-Glo proliferation/viability assay; format: cell-based, human
RBL-2H3 cells = test: Degranulation (β-hexosaminidase release) colorimetric assay; format: cell-based; conditions: Rattus norvegicus, RBL-2H3, IgE / DNP-BSA
Source text: Crosslinking of IgE receptors leads to induction of intracellular signal transduction pathways and degranulation of mast cells and basophils leading to the release of histamine, serotonin and cytokines that constitutes an allergic reaction. […] One of the factors secreted on induction of degranulation is β-hexosaminidase. A colorimetric assay using 4-nitrophenyl N-acetyl-3-D-glucosaminide (Sigma-Aldrich) as a substrate was used to estimate the amount of enzyme secreted upon degranulation. In brief, RBL-2H3 (ATCC # CRL 2256) cells were plated overnight in the presence of IgE (monoclonal anti-dinitrophenyl antibody from Sigma-Aldrich). The next day, cells were treated with compounds in cell culture media, washed and treated with DNP-BSA for 1 hour (Sigma-Aldrich) in Tyrodes's buffer to induce degranulation. The level of 3-hexosaminidase was analyzed in cell-free supernates and cell lysates and the amount of β-hexosaminidase released was calculated. EC50 values were generated using varying concentrations of inhibitors. […] Thus amino naphthyridinones can be used to inhibit immunologic functions such as degranulation.

BTK = BTK (Homo sapiens (Human), UniProt Q06187)
Lyn [7] = target: T1, Lyn; test: biochemical; conditions: Lyn IC50
SuDHL6 = test: Proliferation/viability assay; format: cell-based; conditions: Table 10; B Lymphoma; read-out: Effect on Tumor Cell Growth EC50, SuDHL6
PC3 [8] = test: Proliferation/viability assay; format: cell-based; conditions: Table 10; Prostate Ca; read-out: Effect on Tumor Cell Growth EC50, PC3
Ramos [9] = conditions: cited from earlier work
Src [10] = target: T2, Src; test: biochemical
Ramos [11] = test: Apoptosis by flow cytometry (Annexin V / 7AAD); format: cell-based, human; conditions: Table 5; positive control, concentration not given
PC3 [12] = test: Apoptosis by flow cytometry (Annexin V / 7AAD); format: cell-based; conditions: Table 5; positive control, concentration not given
DoHH2 [13] = test: Apoptosis by flow cytometry (Annexin V / 7AAD); format: cell-based, human; conditions: Table 5; positive control, concentration not given
Source text: Activation of Tec family kinases including BTK, and/or Src kinase family members, regulates cell survival and cell death in normal B cells, lymphomas, and solid tumors. Apoptosis is a programmed cell death characterized by specific changes in cell morphology. […] Staurosporine was used as a positive control for apoptosis. […] Table 6 illustrates that several amino naphthyridinones induce significant apoptosis in DoHH2 cells.

[14] = Homo sapiens, Ramos, 48 h, read-out: Ramos EC50
[15] = Homo sapiens, DOHH-2, 48 hrs, read-out: DoHH2 EC50
[16] = Homo sapiens, Ramos, 48 hrs, read-out: Ramos EC50

T2 sequence (P12931 whole entry, looked up): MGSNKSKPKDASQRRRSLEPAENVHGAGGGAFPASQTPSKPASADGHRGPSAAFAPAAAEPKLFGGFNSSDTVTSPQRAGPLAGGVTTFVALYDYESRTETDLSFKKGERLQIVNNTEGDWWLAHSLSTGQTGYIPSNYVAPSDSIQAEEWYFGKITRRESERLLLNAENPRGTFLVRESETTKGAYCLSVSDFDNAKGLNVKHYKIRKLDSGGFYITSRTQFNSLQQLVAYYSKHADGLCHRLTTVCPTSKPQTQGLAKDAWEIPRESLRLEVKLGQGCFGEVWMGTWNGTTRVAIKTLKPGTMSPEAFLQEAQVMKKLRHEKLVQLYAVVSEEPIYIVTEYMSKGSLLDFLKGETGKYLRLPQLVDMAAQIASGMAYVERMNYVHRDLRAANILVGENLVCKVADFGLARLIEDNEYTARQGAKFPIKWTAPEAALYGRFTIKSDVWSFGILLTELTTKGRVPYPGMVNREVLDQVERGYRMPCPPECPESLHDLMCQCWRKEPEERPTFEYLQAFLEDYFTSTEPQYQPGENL
T1 sequence (P07948 whole entry): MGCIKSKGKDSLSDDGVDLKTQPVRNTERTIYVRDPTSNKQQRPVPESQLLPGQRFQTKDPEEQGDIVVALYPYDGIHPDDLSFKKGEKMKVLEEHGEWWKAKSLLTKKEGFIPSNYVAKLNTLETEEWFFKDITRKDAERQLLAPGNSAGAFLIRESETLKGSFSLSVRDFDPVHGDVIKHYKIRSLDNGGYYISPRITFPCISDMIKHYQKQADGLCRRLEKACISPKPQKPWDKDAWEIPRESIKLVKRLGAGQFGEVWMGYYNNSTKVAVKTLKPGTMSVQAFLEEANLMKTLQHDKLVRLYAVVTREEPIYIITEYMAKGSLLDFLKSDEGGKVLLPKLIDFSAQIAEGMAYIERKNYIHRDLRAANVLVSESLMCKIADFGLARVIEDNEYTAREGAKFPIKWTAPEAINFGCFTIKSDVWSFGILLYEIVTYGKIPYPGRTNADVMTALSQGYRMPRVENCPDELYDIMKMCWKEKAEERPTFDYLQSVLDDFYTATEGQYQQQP
Sequence of BTK (Q06187 whole entry): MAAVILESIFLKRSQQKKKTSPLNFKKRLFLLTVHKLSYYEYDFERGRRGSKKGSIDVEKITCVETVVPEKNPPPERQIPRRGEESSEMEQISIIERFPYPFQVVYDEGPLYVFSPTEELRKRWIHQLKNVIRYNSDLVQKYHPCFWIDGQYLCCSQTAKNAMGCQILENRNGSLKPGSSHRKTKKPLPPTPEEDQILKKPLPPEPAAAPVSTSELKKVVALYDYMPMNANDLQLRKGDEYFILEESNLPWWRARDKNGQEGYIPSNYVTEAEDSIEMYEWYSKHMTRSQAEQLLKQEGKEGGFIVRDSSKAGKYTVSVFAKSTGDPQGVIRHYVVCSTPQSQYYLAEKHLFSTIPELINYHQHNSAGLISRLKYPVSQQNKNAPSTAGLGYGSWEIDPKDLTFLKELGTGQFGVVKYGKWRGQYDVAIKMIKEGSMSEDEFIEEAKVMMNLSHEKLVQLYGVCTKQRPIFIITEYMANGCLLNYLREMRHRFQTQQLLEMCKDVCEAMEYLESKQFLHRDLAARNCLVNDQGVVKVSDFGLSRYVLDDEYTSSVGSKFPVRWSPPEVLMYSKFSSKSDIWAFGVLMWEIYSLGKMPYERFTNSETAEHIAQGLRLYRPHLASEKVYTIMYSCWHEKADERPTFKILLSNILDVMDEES

Row | Structure (SMILES) | IC50 (Src [4]) [nM] | EC50 (RBL-2H3 cells) [nM] | EC50 (Ramos [1]; [16]) [nM] | IC50 (Lyn [2]) [nM] | inhibition at 0.3 µM [3] [%] | inhibition at 0.3 µM [5] [%] | EC50 (DoHH2 [6]; [15]) [nM] | IC50 (BTK; read-out: BTK IC50) [nM] | other results
1 | CCn1c(=O)c(-c2c(F)cccc2F)cc2cnc(Nc3ccc(N(C)C4CCN(C)CC4)cn3)cc21 [Compound 95, 3-(2,6-difluorophenyl)-1-ethyl-7-((5-(methyl(1-methylpiperidin-4-yl)amino)pyridin-2-yl)amino)-1,6-naphthyridin-2(1H)-one] | < 100 | 2220 | – | < 100 | 56 | 87 | < 1000 | < 100 | EC50 (Ramos [1]; [14]): 1000 to 10000 nM
2 | CCN(CC)CCOc1ccc(Nc2cc3c(cn2)cc(-c2ccc(F)cc2C)c(=O)n3CC)nc1 [Compound 99, 7-((5-(2-(diethylamino)ethoxy)pyridin-2-yl)amino)-1-ethyl-3-(4-fluoro-2-methylphenyl)-1,6-naphthyridin-2(1H)-one] | < 100 | 2990 | 1000 to 10000 | < 100 | 40 | 83 | < 1000 | < 100 | –
3 | COCCn1c(=O)c(-c2c(F)cccc2F)cc2cnc(Nc3ccc(N(C)C4CCN(C)CC4)cn3)cc21 [Compound 129, 3-(2,6-difluorophenyl)-1-(2-methoxyethyl)-7-((5-(methyl(1-methylpiperidin-4-yl)amino)pyridin-2-yl)amino)-1,6-naphthyridin-2(1H)-one] | < 100 | > 5000 | 1000 to 10000 | < 100 | 66 | 88 | < 1000 | < 100 | –
4 | CN1CCN(CCOc2cc(OC3CCOCC3)c3c(Nc4c(Cl)ccc5c4OCO5)ncnc3c2)CC1 [AZN0530] | – | – | – | – | – | – | – | – | EC50 (Ramos [1]; Table 10, B Lymphoma, read-out: Effect on Tumor Cell Growth EC50, Ramos): > 10000 nM; EC50 (SuDHL6): 2500 nM; EC50 (DoHH2 [6]; Table 10, B Lymphoma, read-out: Effect on Tumor Cell Growth EC50, DOHH2): 2400 nM; EC50 (PC3 [8]): > 10000 nM; Resistance of Ramos to known kinase inhibitors (Ramos [9]): resistant
5 | CC(C)n1c(=O)c(-c2c(F)cccc2F)cc2cnc(Nc3ccc(N(C)C4CCN(C)CC4)cn3)cc21 [Compound 137, 3-(2,6-difluorophenyl)-1-isopropyl-7-((5-(methyl(1-methylpiperidin-4-yl)amino)pyridin-2-yl)amino)-1,6-naphthyridin-2(1H)-one] | < 100 | 1140 | – | < 100 | 81 | 98 | < 1000 | < 100 | EC50 (Ramos [1]; [14]): 1000 to 10000 nM
6 | CN[C@@H]1C[C@H]2O[C@@](C)([C@@H]1OC)n1c3ccccc3c3c4c(c5c6ccccc6n2c5c31)C(=O)NC4 [staurosporine, Staurosporine, reference compound] | – | – | – | – | – | – | – | – | Percent Apoptosis Ramos (Ramos [11]): 73.74%; Percent Apoptosis PC3 (PC3 [12]): 47.16%; Percent Apoptosis DOHH2 (DoHH2 [13]): 95.86%
7 | CCn1c(=O)c(-c2c(O)cccc2F)cc2cnc(Nc3ccc(N(C)C4CCN(C)CC4)cn3)cc21 [Compound 120, 1-ethyl-3-(2-fluoro-6-hydroxyphenyl)-7-((5-(methyl(1-methylpiperidin-4-yl)amino)pyridin-2-yl)amino)-1,6-naphthyridin-2(1H)-one] | < 100 | 2220 | 1000 to 10000 | < 100 | 57 | 87 | < 1000 | < 100 | –
8 | CC(C)n1c(=O)c(-c2c(F)cccc2F)cc2cnc(Nc3ccc(F)cn3)cc21 [Compound 78, 3-(2,6-difluorophenyl)-7-((5-fluoropyridin-2-yl)amino)-1-isopropyl-1,6-naphthyridin-2(1H)-one] | – | > 5000 | > 10000 | – | 8 | 55 | < 1000 | – | IC50 (BTK): 100 to 1000 nM
9 | CCN(CC)CCOc1ccc(Nc2cc3c(cn2)cc(-c2c(Cl)cccc2Cl)c(=O)n3CC)nc1 [Compound 101, 3-(2,6-dichlorophenyl)-7-((5-(2-(diethylamino)ethoxy)pyridin-2-yl)amino)-1-ethyl-1,6-naphthyridin-2(1H)-one] | < 100 | 950 | 1000 to 10000 | < 100 | 70 | 92 | < 1000 | < 100 | –

Further lines, with some results ahead:

Row | IC50 (Src [4]) [nM] | EC50 (RBL-2H3 cells) [nM] | EC50 (Ramos [1]; [16]) [nM] | Structure (SMILES) | IC50 (Lyn [2]) [nM] | inhibition at 0.3 µM [3] [%] | inhibition at 0.3 µM [5] [%] | EC50 (DoHH2 [6]; [15]) [nM] | IC50 (BTK; read-out: BTK IC50) [nM] | other results
10 | < 100 | > 5000 | – | O=c1c(-c2c(F)cccc2F)cc2cnc(Nc3ccc(F)cn3)cc2n1C1CCOC1 (single isomer, unassigned) [Compound 142, (R or S)-3-(2,6-difluorophenyl)-7-((5-fluoropyridin-2-yl)amino)-1-(tetrahydrofuran-3-yl)-1,6-naphthyridin-2(1H)-one] | – | – | – | – | – | EC50 (Ramos [1]; 48 hrs, read-out: Ramos EC50): 1000 to 10000 nM; EC50 (DoHH2 [6]; 48 hrs, read-out: DoHH2 EC50): < 1000 nM; IC50 (Lyn [7]): < 100 nM
11 | – | > 5000 | – | CN1CC[C@H](n2c(=O)c(-c3c(F)cccc3F)cc3cnc(Nc4ccc(F)cn4)cc32)C1 [Compound 150, (S)-3-(2,6-difluorophenyl)-7-((5-fluoropyridin-2-yl)amino)-1-(1-methylpyrrolidin-3-yl)-1,6-naphthyridin-2(1H)-one] | – | – | – | 1000 to 10000 | – | EC50 (Ramos [1]; [14]): > 10000 nM; IC50 (Src [10]): 100 to 1000 nM; IC50 (Lyn [7]): 100 to 1000 nM
12 | < 100 | 3110 | 1000 to 10000 | CN1CCN(CCn2c(=O)c(-c3c(F)cccc3F)cc3cnc(Nc4ccc(F)cn4)cc32)CC1 [Compound 134, 3-(2,6-difluorophenyl)-7-((5-fluoropyridin-2-yl)amino)-1-(2-(4-methylpiperazin-1-yl)ethyl)-1,6-naphthyridin-2(1H)-one] | < 100 | 44 | 80 | < 1000 | < 100 | –
13 | – | > 5000 | – | CN1CC[C@@H](n2c(=O)c(-c3c(F)cccc3F)cc3cnc(Nc4ccc(F)cn4)cc32)C1 [Compound 152, (R)-3-(2,6-difluorophenyl)-7-((5-fluoropyridin-2-yl)amino)-1-(1-methylpyrrolidin-3-yl)-1,6-naphthyridin-2(1H)-one] | – | – | – | < 1000 | – | EC50 (Ramos [1]; [14]): > 10000 nM; IC50 (Src [10]): 100 to 1000 nM; IC50 (Lyn [7]): 100 to 1000 nM
14 | < 100 | 5490 | > 10000 | O=c1c(-c2c(F)cccc2F)cc2cnc(Nc3ccc(F)cn3)cc2n1CCN1CCOCC1 [Compound 133, 3-(2,6-difluorophenyl)-7-((5-fluoropyridin-2-yl)amino)-1-(2-morpholinoethyl)-1,6-naphthyridin-2(1H)-one] | < 100 | – | – | < 1000 | < 100 | –
